In US20170339955A1, “Substituted N-(tetrazol-5-yl)- and N-(triazol-5-yl)arylcarboxamide compounds and their use as herbicides” (BASF SE, priority 2012, published 2017):

Tests used:
Type in all cases: in vivo
[1] = test system: Abutilon theophrasti (velvetleaf); assay: Greenhouse post-emergence treatment of Abutilon theophrasti (velvetleaf); details: application rate 1000 g/ha, scale 0 (no damage) to 100 (complete destruction)
Source text: (§1) The culture containers used were plastic flowerpots containing loamy sand with approximately 3.0% of humus as the substrate. The seeds of the test plants were sown separately for each species.
(§2) For the post-emergence treatment, the test plants were first grown to a height of 3 to 15 cm, depending on the plant habit, and only then treated with the active ingredients which had been suspended or emulsified in water. For this purpose, the test plants were either sown directly and grown in the same containers, or they were first grown separately as seedlings and transplanted into the test containers a few days prior to treatment.
(§3) Depending on the species, the plants were kept at 10-25° C. or 20-35° C. The test period extended over 2 to 4 weeks. During this time, the plants were tended, and their response to the individual treatments was evaluated.
(§4) Evaluation was carried out using a scale from 0 to 100. 100 means no emergence of the plants, or complete destruction of at least the aerial moieties, and 0 means no damage, or normal course of growth. A good herbicidal activity is given at values of at least 70 and a very good herbicidal activity is given at values of at least 85.

[2] = test system: Amaranthus retroflexus L. (pigweed); assay: Greenhouse post-emergence treatment of Amaranthus retroflexus L. (pigweed); details: application rate 1000 g/ha, scale 0 (no damage) to 100 (complete destruction)
Source text: as §1, §2, §3, §4

[3] = test system: Abutilon theophrasti (velvetleaf); assay: Greenhouse pre-emergence treatment of Abutilon theophrasti (velvetleaf); details: application rate 1000 g/ha, scale 0 (no damage) to 100 (no emergence/complete destruction)
Source text: as §1
(§5) For the pre-emergence treatment, the active ingredients, which had been suspended or emulsified in water, were applied directly after sowing by means of finely distributing nozzles. The containers were irrigated gently to promote germination and growth and subsequently covered with transparent plastic hoods until the plants had rooted. This cover caused uniform germination of the test plants, unless this has been impaired by the active ingredients.
as §3, §4

[4] = test system: Amaranthus retroflexus L. (pigweed); assay: Greenhouse pre-emergence treatment of Amaranthus retroflexus L. (pigweed); details: application rate 1000 g/ha, scale 0 (no damage) to 100 (no emergence/complete destruction)
Source text: as §1, §5, §3, §4

[5] = test system: Echinochloa crus-galli (barnyard grass); assay: Greenhouse post-emergence treatment of Echinochloa crus-galli (barnyard grass); details: application rate 1000 g/ha, scale 0 (no damage) to 100 (complete destruction)
Source text: as §1, §2, §3, §4

| SMILES | damage [%] [1] [%] | damage [%] [2] [%] | damage [%] [3] [%] | damage [%] [4] [%] | damage [%] [5] [%] |
| --- | --- | --- | --- | --- | --- |
| CSc1c(Cl)cc(F)c(C(=O)Nc2nnnn2C)c1Cl [V.A-1442, 2,4-dichloro-6-fluoro-3-methylsulfanyl-n-(1-methyltetrazol-5-yl)benzamide] | 100 | 100 | 100 | – | – |
| Cn1ncnc1NC(=O)c1c(F)cc(Cl)cc1Cl [I.A-1] | 100 | 100 | – | 80 | – |
| Cn1nnnc1NC(=O)c1c(F)cc(Cl)c(S(C)(=O)=O)c1Cl [V.A.-41, 2,4-dichloro-6-fluoro-3-methylsulfonyl-n-(1-methyltetrazol-5-yl)benzamide] | 100 | 100 | – | 100 | – |
| Cn1nnnc1NC(=O)c1cc(F)c(Cl)cc1Cl [V.A-5] | 100 | 100 | – | 100 | – |
| Cn1ncnc1NC(=O)c1c(F)ccc(Cl)c1Cl [I.A-1441] | 75 | 100 | – | 100 | – |
| Cn1ncnc1NC(=O)c1cc(F)c(Cl)cc1Cl [I.A-5] | 75 | 85 | – | – | 90 |
| Cn1ncnc1NC(=O)c1c(F)cc(Cl)c(S(C)(=O)=O)c1Cl [I.A-41, 2,4-dichloro-6-fluoro-3-methylsulfonyl-n-(2-methyl-1,2,4-triazol-3-yl)benzamide] | 100 | 100 | 95 | – | – |
